# Laboratory results as given in paper PMC5218480 (PLoS ONE, 2017).
# Tested on: MV-4-11 cells
# Assay: Gene expression microarray analysis (Affymetrix PrimeView) and GSEA
# Assay type: cell-based, human
# Design: RFU PODN (11730768_x_at) / Fold change /veh PODN (11730768_x_at) / RFU LINC00158 (11744669_a_at) / Fold change /veh LINC00158 (11744669_a_at) / RFU DUSP10 (11751237_a_at) / Fold change /veh DUSP10 (11751237_a_at) / RFU ID3 (11757404_x_at) / Fold change /veh ID3 (11757404_x_at) / RFU PLEKHG5 (11737974_s_at) / Fold change /veh PLEKHG5 (11737974_s_at) / RFU LRRC4B (11730491_at) / Fold change /veh LRRC4B (11730491_at) / RFU GIMAP4 (11747438_a_at) / Fold change /veh GIMAP4 (11747438_a_at) / RFU KRT8 (11758183_x_at) / Fold change /veh KRT8 (11758183_x_at) / RFU CNN1 (11734310_a_at) / Fold change /veh CNN1 (11734310_a_at) / RFU VPS37D (11726825_at) / Fold change /veh VPS37D (11726825_at) / RFU C10orf10 (11716522_x_at) / Fold change /veh C10orf10 (11716522_x_at) / RFU KIR2DL2 /// KIR2DL4 /// KIR2DL5A /// KIR2DL5B /// KIR2DS1 /// KIR2DS2 /// KIR2DS3 /// KIR2DS4 /// KIR3DL3 /// KIR3DL3 /// KIR3DS1 (11738374_at) / Fold change /veh KIR2DL2 /// KIR2DL4 /// KIR2DL5A /// KIR2DL5B /// KIR2DS1 /// KIR2DS2 /// KIR2DS3 /// KIR2DS4 /// KIR3DL3 /// KIR3DL3 /// KIR3DS1 (11738374_at) / RFU C1QL1 (11718748_at) / Fold change /veh C1QL1 (11718748_at) / RFU TMPRSS4 (11747572_a_at) / Fold change /veh TMPRSS4 (11747572_a_at) / RFU HAMP (11756126_x_at) / Fold change /veh HAMP (11756126_x_at) / RFU RNFT2 (11725882_a_at) / Fold change /veh RNFT2 (11725882_a_at) / RFU NR4A2 (11747474_a_at) / Fold change /veh NR4A2 (11747474_a_at) / RFU ABCC12 (11746883_a_at) / Fold change /veh ABCC12 (11746883_a_at) / RFU TMEM136 (11760407_x_at) / Fold change /veh TMEM136 (11760407_x_at) / RFU CLDN22 /// WWC2 (11732394_at) / Fold change /veh CLDN22 /// WWC2 (11732394_at) / RFU HLA-DPB1 (11760878_x_at) / Fold change /veh HLA-DPB1 (11760878_x_at) / RFU SPINT1 (11716480_a_at) / Fold change /veh SPINT1 (11716480_a_at) / RFU GAP43 (11754022_s_at) / Fold change /veh GAP43 (11754022_s_at) / RFU A4GNT (11735810_at) / Fold change /veh A4GNT (11735810_at) / RFU PRB3 (11715151_x_at) / Fold change /veh PRB3 (11715151_x_at) / RFU TUBB4B (11761932_at) / Fold change /veh TUBB4B (11761932_at) / RFU CAPN14 (11732068_a_at) / Fold change /veh CAPN14 (11732068_a_at) / RFU TMCC2 (11721928_a_at) / Fold change /veh TMCC2 (11721928_a_at) / RFU IRGQ (11745062_a_at) / Fold change /veh IRGQ (11745062_a_at) / RFU FAM174B (11720279_a_at) / Fold change /veh FAM174B (11720279_a_at) / RFU TMPRSS4 (11748680_a_at) / Fold change /veh TMPRSS4 (11748680_a_at) / RFU FAM212B (11763350_a_at) / Fold change /veh FAM212B (11763350_a_at) / RFU PLEKHG5 (11743358_a_at) / Fold change /veh PLEKHG5 (11743358_a_at) / RFU ZSCAN30 (11745921_a_at) / Fold change /veh ZSCAN30 (11745921_a_at) / RFU CMKLR1 (11741424_a_at) / Fold change /veh CMKLR1 (11741424_a_at) / RFU LOC101060620 /// MAPK8IP1 (11723275_at) / Fold change /veh LOC101060620 /// MAPK8IP1 (11723275_at) / RFU SPTSSB (11747773_x_at) / Fold change /veh SPTSSB (11747773_x_at) / RFU PRSS12 (11739890_at) / Fold change /veh PRSS12 (11739890_at) / RFU BIN1 (11741810_x_at) / Fold change /veh BIN1 (11741810_x_at) / RFU WNT11 (11732464_a_at) / Fold change /veh WNT11 (11732464_a_at) / RFU C10orf10 (11716521_a_at) / Fold change /veh C10orf10 (11716521_a_at) / RFU C5orf56 (11738089_at) / Fold change /veh C5orf56 (11738089_at) / RFU CYB561 (11721691_x_at) / Fold change /veh CYB561 (11721691_x_at) / RFU ANKRD19P (11752326_a_at) / Fold change /veh ANKRD19P (11752326_a_at) / RFU OR2T12 /// OR2T33 /// OR2T8 (11738714_s_at) / Fold change /veh OR2T12 /// OR2T33 /// OR2T8 (11738714_s_at) / RFU VCAN (11748164_a_at) / Fold change /veh VCAN (11748164_a_at) / RFU JSRP1 (11732532_at) / Fold change /veh JSRP1 (11732532_at) / RFU KRTAP10-11 (11738290_x_at) / Fold change /veh KRTAP10-11 (11738290_x_at) / RFU MYO3A (11730013_a_at) / Fold change /veh MYO3A (11730013_a_at) / RFU EBF3 (11725865_a_at) / Fold change /veh EBF3 (11725865_a_at) / RFU CAMK2N1 (11719241_x_at) / Fold change /veh CAMK2N1 (11719241_x_at) / RFU C5orf56 (11738088_a_at) / Fold change /veh C5orf56 (11738088_a_at) / RFU OLFML3 (11715873_a_at) / Fold change /veh OLFML3 (11715873_a_at) / RFU LOC100653217 /// NTM (11731650_a_at) / Fold change /veh LOC100653217 /// NTM (11731650_a_at) / RFU MAPK11 (11762145_a_at) / Fold change /veh MAPK11 (11762145_a_at) / RFU FIZ1 (11724087_x_at) / Fold change /veh FIZ1 (11724087_x_at) / RFU OASL (11726364_x_at) / Fold change /veh OASL (11726364_x_at) / RFU SOX15 (11748057_x_at) / Fold change /veh SOX15 (11748057_x_at) / RFU CD79A (11719716_a_at) / Fold change /veh CD79A (11719716_a_at) / RFU HIST1H1D (11736915_at) / Fold change /veh HIST1H1D (11736915_at) / RFU CASKIN2 (11723855_a_at) / Fold change /veh CASKIN2 (11723855_a_at) / RFU LOC730098 (11760151_x_at) / Fold change /veh LOC730098 (11760151_x_at) / RFU OR4N2 (11742367_at) / Fold change /veh OR4N2 (11742367_at) / RFU PRRT2 (11749266_a_at) / Fold change /veh PRRT2 (11749266_a_at) / RFU SNX32 (11753110_a_at) / Fold change /veh SNX32 (11753110_a_at) / RFU CDHR5 (11726645_a_at) / Fold change /veh CDHR5 (11726645_a_at) / RFU RCAN1 (11760418_a_at) / Fold change /veh RCAN1 (11760418_a_at) / RFU FAM167A (11723789_a_at) / Fold change /veh FAM167A (11723789_a_at) / RFU FAM26E (11764081_at) / Fold change /veh FAM26E (11764081_at) / RFU ISYNA1 (11749810_s_at) / Fold change /veh ISYNA1 (11749810_s_at) / RFU ACY1 (11761880_at) / Fold change /veh ACY1 (11761880_at) / RFU 11764098_at / Fold change /veh 11764098_at / RFU SAMD14 (11745864_x_at) / Fold change /veh SAMD14 (11745864_x_at) / RFU NPB (11741838_a_at) / Fold change /veh NPB (11741838_a_at) / RFU TMPRSS6 (11731388_a_at) / Fold change /veh TMPRSS6 (11731388_a_at) / RFU KRTAP10-2 (11738614_at) / Fold change /veh KRTAP10-2 (11738614_at) / RFU ARHGAP8 /// PRR5-ARHGAP8 (11727945_x_at) / Fold change /veh ARHGAP8 /// PRR5-ARHGAP8 (11727945_x_at) / RFU KRTAP5-7 /// NADSYN1 (11734609_at) / Fold change /veh KRTAP5-7 /// NADSYN1 (11734609_at) / RFU RASL12 (11751679_a_at) / Fold change /veh RASL12 (11751679_a_at) / RFU CDKN2B (11736163_a_at) / Fold change /veh CDKN2B (11736163_a_at) / RFU PRF1 (11729649_at) / Fold change /veh PRF1 (11729649_at) / RFU, ZNF638 /// ZNF638-IT1 / Fold change vs veh, ZNF638 /// ZNF638-IT1 / RFU, PANK3 / Fold change vs veh, PANK3 / RFU, SH3YL1 / Fold change vs veh, SH3YL1 / RFU, ZEB2 / Fold change vs veh, ZEB2 / RFU, NRIP1 / Fold change vs veh, NRIP1 / RFU, PTTG1IP / Fold change vs veh, PTTG1IP / RFU, CAPN2 / Fold change vs veh, CAPN2 / RFU, MED14 / Fold change vs veh, MED14 / RFU, SNORA58 / Fold change vs veh, SNORA58 / RFU, C1orf63 / Fold change vs veh, C1orf63 / RFU, LRRFIP1 / Fold change vs veh, LRRFIP1 / RFU, NDUFAF7 / Fold change vs veh, NDUFAF7 / RFU, SLC12A2 / Fold change vs veh, SLC12A2 / RFU, IBTK / Fold change vs veh, IBTK / RFU, ESF1 / Fold change vs veh, ESF1 / Fold change vs veh, TMEM50B / RFU, TAOK1 / Fold change vs veh, TAOK1 / RFU, ACBD3 / Fold change vs veh, ACBD3 / RFU, TMA16 / Fold change vs veh, TMA16 / RFU, RWDD3 / Fold change vs veh, RWDD3 / RFU, BCAT1 / Fold change vs veh, BCAT1 / RFU, EDEM3 / Fold change vs veh, EDEM3 / RFU, TMEM33 / Fold change vs veh, TMEM33 / RFU, WDR75 / Fold change vs veh, WDR75 / RFU, AHCTF1 / Fold change vs veh, AHCTF1 / RFU, TFRC / Fold change vs veh, TFRC / RFU, ZDHHC17 / Fold change vs veh, ZDHHC17 / RFU, NOM1 / Fold change vs veh, NOM1 / RFU, ARL8B / Fold change vs veh, ARL8B / RFU, ZBTB11 / Fold change vs veh, ZBTB11 / RFU, TAMM41 / Fold change vs veh, TAMM41 / RFU, KIAA1704 /// LOC100996395 / Fold change vs veh, KIAA1704 /// LOC100996395 / RFU, ING1 / Fold change vs veh, ING1 / RFU, TRMT61B / Fold change vs veh, TRMT61B / RFU, FUBP3 / Fold change vs veh, FUBP3 / RFU, TP53 / Fold change vs veh, TP53 / RFU, TNKS2 / Fold change vs veh, TNKS2 / RFU, ZFP14 / Fold change vs veh, ZFP14 / RFU, ACTR2 / Fold change vs veh, ACTR2 / RFU, PPP3R1 / Fold change vs veh, PPP3R1 / RFU, PIK3R1 / Fold change vs veh, PIK3R1 / RFU, HNRNPA1 / Fold change vs veh, HNRNPA1 / RFU, RNF170 / Fold change vs veh, RNF170 / RFU, ZNF28 / Fold change vs veh, ZNF28 / RFU, RNGTT / Fold change vs veh, RNGTT / RFU, OGT / Fold change vs veh, OGT / RFU, BRD1 / Fold change vs veh, BRD1 / RFU, MARS / Fold change vs veh, MARS / RFU, ZNF655 / Fold change vs veh, ZNF655 / RFU, FAHD1 / Fold change vs veh, FAHD1 / RFU, BDP1 / Fold change vs veh, BDP1 / RFU, LRRCC1 / Fold change vs veh, LRRCC1 / RFU, ARID1A / Fold change vs veh, ARID1A / RFU, ZNF146 / Fold change vs veh, ZNF146 / RFU, ZNF330 / Fold change vs veh, ZNF330 / RFU, GPN3 / Fold change vs veh, GPN3 / RFU, C9orf123 / Fold change vs veh, C9orf123 / RFU, N4BP2L2 / Fold change vs veh, N4BP2L2 / RFU, ARFIP1 / Fold change vs veh, ARFIP1 / RFU, FAM179B / Fold change vs veh, FAM179B / RFU, BCL10 / Fold change vs veh, BCL10 / RFU, UHRF1BP1L / Fold change vs veh, UHRF1BP1L / RFU, BET1 / Fold change vs veh, BET1 / RFU, CNOT2 / Fold change vs veh, CNOT2 / RFU, ZNF268 / Fold change vs veh, ZNF268 / Fold change vs veh, ZNF507 / RFU, DGCR2 / Fold change vs veh, DGCR2 / RFU, WDSUB1 / Fold change vs veh, WDSUB1 / Fold change vs veh, HSP90B1 /// MIR3652 / RFU, ADSS / Fold change vs veh, ADSS / RFU, GK / Fold change vs veh, GK / RFU, ZNF148 / Fold change vs veh, ZNF148 / RFU, TAF9 / Fold change vs veh, TAF9 / RFU, SLC1A5 / Fold change vs veh, SLC1A5 / RFU, SLMO2 / Fold change vs veh, SLMO2 / RFU, ABCC4 / Fold change vs veh, ABCC4 / RFU, LOC101060439 /// RAP1B / Fold change vs veh, LOC101060439 /// RAP1B / RFU, RFX7 / Fold change vs veh, RFX7 / RFU, GTPBP10 / Fold change vs veh, GTPBP10 / RFU, CNEP1R1 / Fold change vs veh, CNEP1R1 / RFU, BIVM-ERCC5 /// ERCC5 / Fold change vs veh, BIVM-ERCC5 /// ERCC5 / RFU, ILF3 / Fold change vs veh, ILF3 / RFU 11762660_at / Fold change /veh 11762660_at / RFU VCAN (11757783_s_at) / Fold change /veh VCAN (11757783_s_at) / RFU DDX43 (11728927_at) / Fold change /veh DDX43 (11728927_at) / RFU KRT8 (11758188_x_at) / Fold change /veh KRT8 (11758188_x_at) / RFU NKD1 (11759106_at) / Fold change /veh NKD1 (11759106_at) / RFU SRD5A1 (11742802_a_at) / Fold change /veh SRD5A1 (11742802_a_at) / RFU TPSAB1 /// TPSB2 (11721975_s_at) / Fold change /veh TPSAB1 /// TPSB2 (11721975_s_at) / RFU GSTM3 (11746129_a_at) / Fold change /veh GSTM3 (11746129_a_at) / RFU IL23R (11737362_x_at) / Fold change /veh IL23R (11737362_x_at) / RFU TMEM51 (11727254_a_at) / Fold change /veh TMEM51 (11727254_a_at) / RFU PIWIL2 (11732686_x_at) / Fold change /veh PIWIL2 (11732686_x_at) / RFU ORM1 (11744905_x_at) / Fold change /veh ORM1 (11744905_x_at) / RFU CCDC152 (11743942_at) / Fold change /veh CCDC152 (11743942_at) / RFU ECM1 (11717891_a_at) / Fold change /veh ECM1 (11717891_a_at) / RFU IL23R (11748794_a_at) / Fold change /veh IL23R (11748794_a_at) / RFU TNFAIP8L3 (11732012_x_at) / Fold change /veh TNFAIP8L3 (11732012_x_at) / RFU MBOAT4 (11741988_at) / Fold change /veh MBOAT4 (11741988_at) / RFU 11764193_at / Fold change /veh 11764193_at / RFU TMEM53 (11763286_at) / Fold change /veh TMEM53 (11763286_at) / RFU MAGEB2 (11727129_at) / Fold change /veh MAGEB2 (11727129_at) / RFU TMEM200A (11744735_a_at) / Fold change /veh TMEM200A (11744735_a_at) / RFU CCDC152 (11751479_a_at) / Fold change /veh CCDC152 (11751479_a_at) / RFU FAM211A (11726209_a_at) / Fold change /veh FAM211A (11726209_a_at) / RFU RGS16 (11746705_a_at) / Fold change /veh RGS16 (11746705_a_at) / RFU VCAN (11755009_s_at) / Fold change /veh VCAN (11755009_s_at) / RFU RHOB (11743442_s_at) / Fold change /veh RHOB (11743442_s_at) / RFU RGS16 (11720943_a_at) / Fold change /veh RGS16 (11720943_a_at) / RFU RGS16 (11720944_at) / Fold change /veh RGS16 (11720944_at) / RFU, VPS4B / Fold change vs veh, VPS4B / RFU, CREB1 / Fold change vs veh, CREB1 / RFU, DNAJC13 / Fold change vs veh, DNAJC13 / RFU, GNAQ / Fold change vs veh, GNAQ / RFU, CDK5R1 / Fold change vs veh, CDK5R1 / RFU, ZRANB3 / Fold change vs veh, ZRANB3 / RFU, CUL4A / Fold change vs veh, CUL4A / RFU, CCNY / Fold change vs veh, CCNY / RFU, UFL1 / Fold change vs veh, UFL1 / RFU, COG3 / Fold change vs veh, COG3 / RFU, DIAPH2 / Fold change vs veh, DIAPH2 / RFU, SKA2 / Fold change vs veh, SKA2 / RFU, AFF3 / Fold change vs veh, AFF3 / RFU, LMF1 / Fold change vs veh, LMF1 / RFU, IPO11 / Fold change vs veh, IPO11 / RFU, DFFB / Fold change vs veh, DFFB / RFU, FOXP1 / Fold change vs veh, FOXP1 / RFU, CARD8 / Fold change vs veh, CARD8 / RFU, STRN3 / Fold change vs veh, STRN3 / RFU, ADK / Fold change vs veh, ADK / RFU, RASSF2 / Fold change vs veh, RASSF2 / RFU, WIPF1 / Fold change vs veh, WIPF1 / RFU, LARP1B / Fold change vs veh, LARP1B / RFU, RASA1 / Fold change vs veh, RASA1 / RFU, RB1 / Fold change vs veh, RB1 / RFU, PPFIA1 / Fold change vs veh, PPFIA1 / RFU, MAT2A / Fold change vs veh, MAT2A / RFU, CCT5 / Fold change vs veh, CCT5 / RFU, WDR92 / Fold change vs veh, WDR92 / RFU, CUX1 / Fold change vs veh, CUX1 / RFU, TTC7A / Fold change vs veh, TTC7A / RFU, TMEM135 / Fold change vs veh, TMEM135 / RFU, DEPTOR / Fold change vs veh, DEPTOR / RFU, CPM / Fold change vs veh, CPM / RFU, DNAJB6 / Fold change vs veh, DNAJB6 / RFU, CACNA2D3 / Fold change vs veh, CACNA2D3 / RFU, DTX4 / Fold change vs veh, DTX4 / RFU, TFCP2 / Fold change vs veh, TFCP2 / RFU, GMCL1 /// GMCL1P1 / Fold change vs veh, GMCL1 /// GMCL1P1 / RFU, AEBP2 / Fold change vs veh, AEBP2 / RFU, SNHG1 /// SNORD22 /// SNORD25 /// SNORD26 /// SNORD27 /// SNORD28 /// SNORD29 /// SNORD31 / Fold change vs veh, SNHG1 /// SNORD22 /// SNORD25 /// SNORD26 /// SNORD27 /// SNORD28 /// SNORD29 /// SNORD31 / Fold change (Aza/veh), C12orf56 (ProbeSet 11735607_a_at) / Fold change (ACY-1035/veh), C12orf56 (ProbeSet 11735607_a_at) / Fold change (Aza/veh), FGFR1OP (ProbeSet 11751329_s_at) / Fold change (ACY-1035/veh), FGFR1OP (ProbeSet 11751329_s_at) / Fold change (Aza/veh), VPS36 (ProbeSet 11739960_a_at) / Fold change (ACY-1035/veh), VPS36 (ProbeSet 11739960_a_at) / RFU SYPL1 (11715823_x_at) / Fold change /veh SYPL1 (11715823_x_at) / RFU IGFBP7 (11715501_s_at) / Fold change /veh IGFBP7 (11715501_s_at) / RFU REEP3 (11722064_at) / Fold change /veh REEP3 (11722064_at) / RFU IGLL1 (11728026_x_at) / Fold change /veh IGLL1 (11728026_x_at): dose or concentration left out as unconfirmed
# Details: MV-4-11 cells, 48 hours
compound,measurement,value
Nc1ncn([C@@H]2O[C@H](CO)[C@@H](O)[C@H]2O)c(=O)n1 [azacitidine],RFU ANKRD19P (11752326_a_at),6.34 RFU
